Values quoted from earlier work as cited in US20240229143A1, “FORMULATION OF PEPTIDE IMMUNOTHERAPIES” (priority 2020, published 2024).

Key:
[1] = single amino acid
[2] = single amino acid; octanol:water
[3] = single amino acid; remark: listed apart in the source

N[C@@H](Cc1c[nH]c2ccccc12)C(=O)O [Tryptophan (Trp)]
Log D7.4 [1]: 1.46
Log P [2]: −1.75
pl [3]: 5.89

N[C@@H](CO)C(=O)O [Serine (Ser)]
pl [3]: 5.68

CC(C)[C@H](N)C(=O)O [Valine (Val)]
Log D7.4 [1]: 0.32
Log P [2]: −2.08
pl [3]: 5.96

NC(=O)CC[C@H](N)C(=O)O [Glutamine (Gln)]
Log P [2]: −3.24

NCCCC[C@H](N)C(=O)O [Lysine (Lys)]
Log D7.4 [1]: −2.27
Log P [2]: −4.44
pl [3]: 9.74

N[C@@H](CS)C(=O)O [Cysteine (Cys)]
pl [3]: 5.07

N[C@@H](Cc1ccc(O)cc1)C(=O)O [Tyrosine (Tyr)]
pl [3]: 5.66

C[C@H](N)C(=O)O [Alanine (Ala)]
Log D7.4 [1]: −0.27
Log P [2]: −2.89
pl [3]: 6.00

N[C@@H](Cc1ccccc1)C(=O)O [Phenylalanine (Phe)]
Log D7.4 [1]: 1.16
Log P [2]: −1.63
pl [3]: 5.48

NCC(=O)O [Glycine (Gly)]
Log D7.4 [1]: −0.22
Log P [2]: −3.25
pl [3]: 5.97

N[C@@H](CC(=O)O)C(=O)O [Asparic Acid (Asp)]
Log D7.4 [1]: −2.06
Log P [2]: −3.38
pl [3]: 2.77

N[C@@H](Cc1c[nH]cn1)C(=O)O [Histidine (His)]
Log D7.4 [1]: −0.44
Log P [2]: −3.56
pl [3]: 7.59

CC[C@H](C)[C@H](N)C(=O)O [Isoleucine (Ile)]
Log D7.4 [1]: 0.69
Log P [2]: −1.72
pl [3]: 6.20

NC(=O)C[C@H](N)C(=O)O [Asparagine (Asn)]
Log D7.4 [1]: −0.98
Log P [2]: −3.41
pl [3]: 5.41

N[C@@H](CCC(=O)O)C(=O)O [Glutamic Acid (Glu)]
Log D7.4 [1]: −2.19
Log P [2]: −2.94
pl [3]: 3.22

N=C(N)NCCC[C@H](N)C(=O)O [Arginine (Arg)]
Log D7.4 [1]: −1.65
pl [3]: 10.76

CSCC[C@H](N)C(=O)O [Methionine (Met)]
Log D7.4 [1]: 0.51
Log P [2]: −1.84
pl [3]: 5.74

O=C(O)[C@@H]1CCCN1 [Proline (Pro)]
Log D7.4 [1]: 0.15
Log P [2]: −2.50
pl [3]: 6.30

C[C@@H](O)[C@H](N)C(=O)O [Threonine (Thr)]
Log D7.4 [1]: −0.26
Log P [2]: −2.92
pl [3]: 5.60

CC(C)C[C@H](N)C(=O)O [Leucine (Leu)]
Log P [2]: −1.61
